Measured values: patent publication US10315992B2, “Tetracyline compounds” (Tetraphase Pharmaceuticals, Inc., priority 2012, dated 2019)
In brackets after ≈: the same amount, converted by molar mass. Read-outs that look alike come from different tables or passages of the source.

Experiments:
[1] = test system: Staphylococcus aureus SA100 (ATCC 13709, MSSA, Smith strain); assay: MIC assay, SA100; assay type: cell-based; settings: read-out: MIC SA 100 13709
[2] = test system: Staphylococcus aureus SA191 (HA-MRSA, tetracycline-resistant); assay: MIC assay, SA191; assay type: cell-based; settings: MRSA, read-out: MIC SA 191
[3] = test system: Staphylococcus aureus SA161 (HA-MRSA, tet(M)); assay: MIC assay, SA161; assay type: cell-based; settings: Staphylococcus aureus, MRSA
[4] = test system: Staphylococcus aureus SA158 (tetracycline-resistant tet(K)); assay: MIC assay, SA158; assay type: cell-based
[5] = test system: Enterococcus faecalis EF103 (ATCC 29212); assay: MIC assay, EF103; assay type: cell-based; settings: ATCC29212, read-out: MIC EF 103 29212
[6] = test system: Enterococcus faecalis EF159 (tet(M)); assay: MIC assay, EF159; assay type: cell-based
[7] = test system: Enterococcus faecalis EF327 (wound isolate, tet(M)); assay: MIC assay, EF327; assay type: cell-based
[8] = test system: Enterococcus faecium EF404 (blood isolate, tet(M)); assay: MIC assay, EF404; assay type: cell-based
[9] = test system: Streptococcus pneumoniae SP160 (tet(M)); assay: MIC assay, SP160; assay type: cell-based
[10] = test system: Haemophilus influenzae HI262 (tetracycline-resistant, ampicillin-resistant); assay: MIC assay, HI262; assay type: cell-based; settings: read-out: MIC HI 262 33929
[11] = test system: Moraxella catarrhalis MC205 (ATCC 8176); assay: MIC assay, MC205; assay type: cell-based; settings: ATCC8176, read-out: MIC MC 205 8176
[12] = test system: Escherichia coli EC107 (ATCC 25922); assay: MIC assay, EC107; assay type: cell-based
[13] = test system: Escherichia coli EC155 (tet(A)); assay: MIC assay, EC155; assay type: cell-based; settings: Escherichia coli, read-out: MIC EC 155 tetA
[14] = test system: Enterobacter cloacae EC108 (ATCC 13047); assay: MIC assay, EC108; assay type: cell-based; settings: ATCC13047, read-out: MIC ECI 108 13047
[15] = test system: Enterobacter cloacae EC603 (urine isolate); assay: MIC assay, EC603; assay type: cell-based
[16] = test system: Proteus mirabilis PM112 (ATCC 35659); assay: MIC assay, PM112; assay type: cell-based; settings: ATCC35659, read-out: MIC PM 112 35659
[17] = test system: Proteus mirabilis PM385 (urine ESBL+ isolate); assay: MIC assay, PM385; assay type: cell-based
[18] = test system: Pseudomonas aeruginosa PA673 (2009 urine isolate); assay: MIC assay, PA673; assay type: cell-based
[19] = test system: Acinetobacter baumannii AB250 (cystic fibrosis isolate, MDR); assay: MIC assay, AB250; assay type: cell-based
[20] = test system: Stenotrophomonas maltophilia SM256 (cystic fibrosis isolate, MDR); assay: MIC assay, SM256; assay type: cell-based
EC 880 ipxC = assay: MIC assay, EC880; assay type: cell-based
Description: (§1) Minimum Inhibitory Concentration (MIC) Assay
(§2) The assays were run as follows.

EC 882 imp = assay: MIC assay, EC882; assay type: cell-based; settings: read-out: MIC EC 882 imp
Description: as §1, §2

[21] = test system: Klebsiella pneumoniae KP457 (2009 ESBL+, CTX-M, OXA); settings: for MIC KP 457 CTX- M-15: K. pneumoniae ESBL+
PA 884 35151 = assay: MIC assay, PA884; settings: Pseudomonas aeruginosa, read-out: MIC PA 884 351 51
Description: (§3) MICs were determined according to the Clinical and Laboratory Standards Institute (CLSI) guidances (e.g., CLSI. Performance standards for antimicrobial susceptibility testing; nineteenth information supplement. CLSI document M100-S19, CLSI, 940 West Valley Road, Suite 1400, Wayne, Pa. 19087-1898, USA, 2009). Briefly, frozen bacterial strains were thawed and subcultured onto Mueller Hinton Broth (MHB) or other appropriate media (Streptococcus requires blood and Haemophilus requires hemin and NAD). Following incubation overnight, the strains were subcultured onto Mueller Hinton Agar and again incubated overnight. […] Isolated colonies were selected to prepare a starting inoculum equivalent to a 0.5 McFarland standard. […] Test compounds were prepared by dilution in sterile water to a final concentration of 5.128 mg/mL. Antibiotics (stored frozen, thawed and used within 3 hours of thawing) and compounds were further diluted to the desired working concentrations.
(§4) The assays were run as follows. Fifty μL of MHB was added to wells 2-12 of a 96-well plate. One hundred μL of appropriately diluted antibiotics was added to well 1. Fifty μL of antibiotics was removed from well 1 and added to well 2 and the contents of well 2 mixed by pipetting up and down five times. Fifty μL of the mixture in well 2 was removed and added to well 3 and mixed as above. Serial dilutions were continued in the same manner through well 12. Fifty μL was removed from well 12 so that all contained 50 μL. Fifty μL of the working inoculum was then added to all test wells. A growth control well was prepared by adding 50 μL of working inoculum and 50 μL of MHB to an empty well. The plates were then incubated at 37° C. overnight, removed from the incubator and each well was read on a plate reading mirror. The lowest concentration (MIC) of test compound that inhibited the growth of the bacteria was recorded.

PA 689 = assay: MIC assay, PA689; settings: Pseudomonas aeruginosa, read-out: MIC PA 689
Description: as §3, §4

## CN(C)c1cc(NC(=O)CNC(C)(C)C)c(O)c2c1C[C@H]1C[C@H]3[C@H](N(C)C)C(O)=C(C(N)=O)C(=O)[C@@]3(O)C(O)=C1C2=O [Tigecycline, tigecycline]
[1]
  MIC: 0.063 µg/mL (≈ 0.108 µM)
[2]
  MIC: 0.5 µg/mL (≈ 0.854 µM)
[3]; read-out: MIC SA 161 MRSAtetM
  MIC: 0.125 µg/mL (≈ 0.213 µM)
[3]; read-out: MIC SA 161 tet M
  MIC: 0.125 µg/mL (≈ 0.213 µM)
[3]; read-out: MIC SA 161 tetM
  MIC: 0.13 µg/mL (≈ 0.222 µM)
[4]; read-out: MIC SA 158 tetK, S. aureus tet(K), Table 4
  MIC: 0.063 µg/mL (≈ 0.108 µM)
[4]; read-out: MIC SA 158 tetK, S. aureus tet(K), Table 5
  MIC: 0.06 µg/mL (≈ 0.102 µM)
[4]; read-out: MIC SA 158 tetK, S. aureus tet(K), Table 6
  MIC: 0.063 µg/mL (≈ 0.108 µM)
[4]; read-out: MIC SA 158 tetK, S. aureus tet(K), Table 7
  MIC: 0.06 µg/mL (≈ 0.102 µM)
[4]; read-out: MIC SA 158 tetK, control compounds
  MIC: 0.06 µg/mL (≈ 0.102 µM)
[4]; read-out: MIC SA 158 tetK, control compounds, numeric
  MIC: 0.06 µg/mL (≈ 0.102 µM)
[5]
  MIC: 0.031 µg/mL (≈ 0.0529 µM)
[6]; read-out: MIC EF 159 tetM, E. faecalis tet(M), Table 4
  MIC: 0.063 µg/mL (≈ 0.108 µM)
[6]; read-out: MIC EF 159 tetM, E. faecalis tet(M), Table 5
  MIC: 0.06 µg/mL (≈ 0.102 µM)
[7]; read-out: MIC EF 327 tet M
  MIC: 0.063 µg/mL (≈ 0.108 µM)
[7]; read-out: MIC EF 327 tetM
  MIC: 0.06 µg/mL (≈ 0.102 µM)
[8]; read-out: MIC EF 404 tet M
  MIC: 0.031 µg/mL (≈ 0.0529 µM)
[8]; read-out: MIC EF 404 tetM
  MIC: 0.03 µg/mL (≈ 0.0512 µM)
[9]; read-out: MIC SP 160 tet M, S. pneumoniae tet(M), Table 6
  MIC: 0.015 µg/mL (≈ 0.0256 µM)
[9]; read-out: MIC SP 160 tetM, S. pneumoniae tet(M), Table 4
  MIC: 0.016 µg/mL (≈ 0.0273 µM)
[9]; read-out: MIC SP 160 tetM, S. pneumoniae tet(M), Table 5
  MIC: 0.02 µg/mL (≈ 0.0341 µM)
[9]; read-out: MIC SP 160 tetM, S. pneumoniae tet(M), Table 7
  MIC: 0.02 µg/mL (≈ 0.0341 µM)
[9]; read-out: MIC SP 160 tetM, control compounds
  MIC: 0.02 µg/mL (≈ 0.0341 µM)
[9]; read-out: MIC SP 160 tetM, control compounds, numeric
  MIC: 0.02 µg/mL (≈ 0.0341 µM)
[10]
  MIC: 1 µg/mL (≈ 1.71 µM)
[11]
  MIC: 0.02 µg/mL (≈ 0.0341 µM)
[12]; ATCC25922, read-out: MIC EC 07 25922, E. coli ATCC 25922, Table 7
  MIC: 0.03 µg/mL (≈ 0.0512 µM)
[12]; ATCC25922, read-out: MIC EC 107 259 22, E. coli ATCC 25922, Table 6
  MIC: 0.03 µg/mL (≈ 0.0512 µM)
[12]; ATCC25922, read-out: MIC EC 107 25922, E. coli ATCC 25922, Table 4
  MIC: 0.031 µg/mL (≈ 0.0529 µM)
[12]; ATCC25922, read-out: MIC EC 107 25922, E. coli ATCC 25922, Table 5
  MIC: 0.03 µg/mL (≈ 0.0512 µM)
[12]; ATCC25922, read-out: MIC EC 107 25922, control compounds
  MIC: 0.03 µg/mL (≈ 0.0512 µM)
[12]; ATCC25922, read-out: MIC EC 107 25922, control compounds, numeric
  MIC: 0.03 µg/mL (≈ 0.0512 µM)
[13]
  MIC: 0.5 µg/mL (≈ 0.854 µM)
[14]
  MIC: 0.25 µg/mL (≈ 0.427 µM)
[15]
  MIC: 2 µg/mL (≈ 3.41 µM)
[15]; read-out: MIC EC 603 tetA
  MIC: 2 µg/mL (≈ 3.41 µM)
[16]
  MIC: 1 µg/mL (≈ 1.71 µM)
[17]; read-out: MIC PM 385
  MIC: 4 µg/mL (≈ 6.83 µM)
[17]; read-out: MIC PM 385 CTX-M15
  MIC: 4 µg/mL (≈ 6.83 µM)
[18]
  MIC: 16 µg/mL (≈ 27.3 µM)
[18]; read-out: MIC PA 673
  MIC: 32 µg/mL (≈ 54.6 µM)
[19]
  MIC: 8 µg/mL (≈ 13.7 µM)
[19]; read-out: MIC AB 250
  MIC: 8 µg/mL (≈ 13.7 µM)
[20]
  MIC: 1 µg/mL (≈ 1.71 µM)
[20]; read-out: MIC SM 256
  MIC: 1 µg/mL (≈ 1.71 µM)
EC 880 ipxC; Table 6, read-out: MIC EC 880 ipx C
  MIC: 0.015 µg/mL (≈ 0.0256 µM)
EC 880 ipxC; Table 7, read-out: MIC EC 880 ipxC
  MIC: 0.02 µg/mL (≈ 0.0341 µM)
EC 882 imp; Table 6
  MIC: 0.015 µg/mL (≈ 0.0256 µM)
EC 882 imp; Table 7
  MIC: 0.02 µg/mL (≈ 0.0341 µM)
[21]; Table 6
  MIC KP 457 CTX- M-15: 1 µg/mL (≈ 1.71 µM)
[21]; Table 7
  MIC KP 457 CTX- M-15: 1 µg/mL (≈ 1.71 µM)
[21]; control compounds
  MIC KP 457 CTX-M-15: 1 µg/mL (≈ 1.71 µM)
[21]; control compounds, numeric
  MIC KP 457: 1 µg/mL (≈ 1.71 µM)
PA 884 35151
  MIC: 0.063 µg/mL (≈ 0.108 µM)
PA 689
  MIC: 1 µg/mL (≈ 1.71 µM)
